Molecular target: ER (Homo sapiens (Human), UniProt P03372)
Test: Western blot analysis (Compounds B1-B278)
Type: cell-based
Conditions: ER degradation by traditional Western blot; DC50 classes
Summary of the method: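 Relative target-protein levels come from densitometry of immunoblots, normalized to GAPDH. Lysates from treated cells were prepared in RIPA buffer (pH 7.6) containing protease inhibitors, and equal protein amounts, checked by BCA, were separated on 10% gels and blotted onto PVDF.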

Chain of ER (P03372 whole entry): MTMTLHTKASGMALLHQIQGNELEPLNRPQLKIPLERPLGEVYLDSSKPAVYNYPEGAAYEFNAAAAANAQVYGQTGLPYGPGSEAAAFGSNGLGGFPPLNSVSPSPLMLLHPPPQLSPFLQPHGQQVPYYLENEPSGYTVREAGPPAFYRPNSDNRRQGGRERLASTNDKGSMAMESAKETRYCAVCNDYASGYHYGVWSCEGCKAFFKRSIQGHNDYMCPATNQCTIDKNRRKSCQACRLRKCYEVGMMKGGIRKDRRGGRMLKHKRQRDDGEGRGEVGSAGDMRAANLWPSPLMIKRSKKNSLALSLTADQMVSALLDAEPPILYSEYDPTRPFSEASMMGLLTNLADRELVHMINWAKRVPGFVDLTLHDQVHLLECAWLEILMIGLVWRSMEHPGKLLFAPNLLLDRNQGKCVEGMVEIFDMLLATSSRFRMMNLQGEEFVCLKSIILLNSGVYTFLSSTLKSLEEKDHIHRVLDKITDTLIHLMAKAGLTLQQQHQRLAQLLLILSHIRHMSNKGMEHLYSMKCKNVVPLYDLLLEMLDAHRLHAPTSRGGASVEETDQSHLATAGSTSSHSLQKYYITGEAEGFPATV

Traditional Western Degradation Potency | Compound
C (“C”: >100 nM) | C[C@@H]1Cc2c([nH]c3ccccc23)[C@H](c2c(F)cc(C(=O)N3CCC4(CCC(CN5Cc6cc7c(cc6C5)C(=O)N(C5CCC(=O)NC5=O)C7=O)CC4)CC3)cc2F)N1CC(F)F (stereo partly drawn) [Compound B100, 6-((3-(4-((1S,3R)-2-(2,2-difluoroethyl)-3-methyl-2,3,4,9-tetrahydro-1H-pyrido[3,4-b]indol-1-yl)-3,5-difluorobenzoyl)-3-azaspiro[5.5]undecan-9-yl)methyl)-2-(2,6-dioxopiperidin-3-yl)-6,7-dihydropyrrolo[3,4-f]isoindole-1,3(2H,5H)-dione]
C (“C”: >100 nM) | C[C@@H]1Cc2c([nH]c3ccccc23)[C@@H](c2c(F)cc(CN3CCC4(CCC(CN5Cc6cc7c(cc6C5)C(=O)N(C5CCC(=O)NC5=O)C7=O)CC4)CC3)cc2F)N1CC(F)F (stereo partly drawn) [Compound B101, 6-((3-(4-((1R,3R)-2-(2,2-difluoroethyl)-3-methyl-2,3,4,9-tetrahydro-1H-pyrido[3,4-b]indol-1-yl)-3,5-difluorobenzyl)-3-azaspiro[5.5]undecan-9-yl)methyl)-2-(2,6-dioxopiperidin-3-yl)-6,7-dihydropyrrolo[3,4-f]isoindole-1,3(2H,5H)-dione]
C (“C”: >100 nM) | C[C@@H]1Cc2c([nH]c3ccccc23)[C@H](c2c(F)cc(CN3CCC4(CCC(CN5Cc6cc7c(cc6C5)C(=O)N(C5CCC(=O)NC5=O)C7=O)CC4)CC3)cc2F)N1CC(F)F (stereo partly drawn) [Compound B102, 6-((3-(4-((1S,3R)-2-(2,2-difluoroethyl)-3-methyl-2,3,4,9-tetrahydro-1H-pyrido[3,4-b]indol-1-yl)-3,5-difluorobenzyl)-3-azaspiro[5.5]undecan-9-yl)methyl)-2-(2,6-dioxopiperidin-3-yl)-6,7-dihydropyrrolo[3,4-f]isoindole-1,3(2H,5H)-dione]

More lines, now with the values behind:

Compound | Traditional Western Degradation Potency
C[C@@H]1Cc2c([nH]c3ccccc23)[C@@H](c2c(F)cc(C(=O)N3CCC4(CC3)CC(CN3Cc5cc6c(cc5C3)C(=O)N(C3CCC(=O)NC3=O)C6=O)C4)cc2F)N1CC(F)F (stereo partly drawn) [Compound B97, 6-((7-(4-((1R,3R)-2-(2,2-difluoroethyl)-3-methyl-2,3,4,9-tetrahydro-1H-pyrido[3,4-b]indol-1-yl)-3,5-difluorobenzoyl)-7-azaspiro[3.5]nonan-2-yl)methyl)-2-(2,6-dioxopiperidin-3-yl)-6,7-dihydropyrrolo[3,4-f]isoindole-1,3(2H,5H)-dione] | C (“C”: >100 nM)
C[C@@H]1Cc2c([nH]c3ccccc23)[C@@H](c2c(F)cc(CN3CCC4(CC3)CC(CN3Cc5cc6c(cc5C3)C(=O)N(C3CCC(=O)NC3=O)C6=O)C4)cc2F)N1CC(F)F (stereo partly drawn) [Compound B98, 6-((7-(4-((1R,3R)-2-(2,2-difluoroethyl)-3-methyl-2,3,4,9-tetrahydro-1H-pyrido[3,4-b]indol-1-yl)-3,5-difluorobenzyl)-7-azaspiro[3.5]nonan-2-yl)methyl)-2-(2,6-dioxopiperidin-3-yl)-6,7-dihydropyrrolo[3,4-f]isoindole-1,3(2H,5H)-dione] | C (“C”: >100 nM)
C[C@@H]1Cc2c([nH]c3ccccc23)[C@@H](c2c(F)cc(C(=O)N3CCC4(CCC(CN5Cc6cc7c(cc6C5)C(=O)N(C5CCC(=O)NC5=O)C7=O)CC4)CC3)cc2F)N1CC(F)F (stereo partly drawn) [Compound B99, 6-((3-(4-((1R,3R)-2-(2,2-difluoroethyl)-3-methyl-2,3,4,9-tetrahydro-1H-pyrido[3,4-b]indol-1-yl)-3,5-difluorobenzoyl)-3-azaspiro[5.5]undecan-9-yl)methyl)-2-(2,6-dioxopiperidin-3-yl)-6,7-dihydropyrrolo[3,4-f]isoindole-1,3(2H,5H)-dione] | C (“C”: >100 nM)

— patent publication US20260007681A1, “INDOLE DERIVATIVES AS ESTROGEN RECEPTOR DEGRADERS” (REGENTS OF THE UNIVERSITY OF MICHIGAN, priority 2022, published 2026)
